Assay [1] deals with Smooth muscle cells (SMC) derived from the aortic tunica media of stroke-prone spontaneously hypertensive rats (SHRSP). Put plainly: Study 2 on arteriosclerosis capability: propagation of smooth muscle cells of the tunica media. The following applies: 0.1 to 30 μmol/liter, five days; for smooth muscle cell propagating capability, number of cells (Determination A, FIG. 5): 10% FBS; for smooth muscle cell propagating capability, number of cells (Determination B, FIG. 6): with 20 ng/ml PDGF. The format is cell-based. Here is the method:
The object of the study is to investigate the effect of the above-described concentrated material of the present invention in terms of preventing propagation of smooth muscle cells of the tunica media of the blood vessels, which is one factor in arteriosclerosis.
1) Smooth muscle cells (SMC) derived from the aortic tunica media of stroke-prone spontaneously hypertensive rats (SHRSP) were prepared by the explant method, and five generations were cultivated.
2) After inoculating 10,000 well SMC in a 24-well plate, the cells were rinsed in the subconfluent state with DMEM medium containing 10% FBS at 37° C. and in the presence of 5% CO2. [The medium] was replaced with DMEM medium containing 0.4% albumin (phenol red-free) and cultivated for 48 hours.
3) Genistein (referred to hereafter as Gen), daidzein (referred to hereafter as Dai), glycitein (referred to hereafter as Gly), and the concentrated material of the present invention were each added to DMEM culture medium (phenol red-free) containing 10% FBS (charcoal-treated) to a concentration of 0.1 to 30 μmol/liter and cultivated for five days. Then, the number of cells was determined with a Coulter counter (referred to hereafter as Determination A).
4) The number of cells was determined by adding 20 ng/ml PDGF in accordance with the method 3) described above (referred to as Determination B).

The test system of a further assay is chicks. Put plainly: Study 1 on immune-activating capability: number of deaths during rearing of chicks. The format is in vivo. The following applies: administered to comparison group after three weeks. Here is the method: The object of the study is to investigate the immune-activating capability based on the number of deaths during rearing of chicks.
6,200 young chicks immediately after hatching were grouped into a comparison group and a study group each. The comparison group was provided conventional feed to which Bacillus subtilus (0.1 wt %) was added, and the study group was provided conventional feed to which the product (0.1 wt %) of propagation of lactic acid bacteria (Enterococcus faesium) as useful microorganisms in pulse crops of the present invention was added, and the number of deaths of chicks at one week, two weeks, three weeks, and four weeks of age was compared.

For `O=c1c(-c2ccc(O)cc2)coc2cc(O)ccc12` [Dai, daidzein], in assay [1], the “smooth muscle cell propagating capability, number of cells (Determination A, FIG. 5)” value was “cell-reducing effect” and the “smooth muscle cell propagating capability, number of cells (Determination B, FIG. 6)” value is listed as “cell-reducing effect”.
Turning to `O=c1c(-c2ccc(O)cc2)coc2cc(O)cc(O)c12` [Gen, Genistein], in assay [1], the “smooth muscle cell propagating capability, number of cells (Determination A, FIG. 5)” value is reported as “cell-reducing effect” and the “smooth muscle cell propagating capability, number of cells (Determination B, FIG. 6)” value was “cell-reducing effect”.
For `CC1(C)S[C@@H]2[C@H](NC(=O)[C@H](N)c3ccccc3)C(=O)N2[C@H]1C(=O)O` [ampicillin], the “increase in deaths of chicks after antibiotic administration” value in the assay with chicks is reported as “an increase in deaths could not be prevented”.

The record behind these values is patent publication US20030185853A1, “Arteriosclerosis-preventing material, immune-activating material, vertebrate that has eaten such materials, and eggs thereof” (Nichimo Co., Ltd., priority 1999, published 2003).
